# Like-named read-outs stand apart in the source and are kept apart here.
# How the values were obtained:
# [1] = oral; cited from earlier work
# Leishmania = settings: visceral leishmaniasis, IV therapy; cited from earlier work
# [2] = Solubility of the drug substance in water, solvents or simulated GI media; assay type: physicochemical
# [3] = cited from earlier work
structure (smiles),measurement,setting,value
"C[C@@H]1[C@H](O)[C@@H](C)/C=C/C=C/C=C/C=C/C=C/C=C/C=C/[C@H](O[C@@H]2O[C@H](C)[C@@H](O)[C@H](N)[C@@H]2O)C[C@@H]2O[C@](O)(C[C@@H](O)C[C@@H](O)[C@H](O)CC[C@@H](O)C[C@@H](O)CC(=O)O[C@H]1C)C[C@H](O)[C@H]2C(=O)O (relative stereo) [amphotericin B, [1R-(1R*,3S*,5R*,6R*,9R*,11R*,15S*,16R*,17R*,18S*,19E,21E,23E,25E,27E,29E,31E,33R*,35S*,36R*,37S,)]-33-[(3-amino-3,6-dideoxy-β-D-mannopyranosyl)oxy]1,3,5,6,9,11,17,37-octahydroxy-15,16,18-trimethyl-13-oxo-14,39-dioxabicyclo-[33.3.1]nonatriaconta-19,21,23,25,27,29,31-heptaene-36-carboxylic acid]",Bioavailability,[1],negligible
same,Cure rate,Leishmania,97%
same,AmpB solubility in aqueous solution,[2]; aqueous solution (pH 7),negligible
same,Solubility of AmpB neat powder in simulated GI media,[2]; simulated gastric and intestinal fluids,not soluble
same,Solubility of crystalline substance in water,[3]; water,insoluble
CC(=O)O[C@@]12CO[C@@H]1C[C@H](O)[C@@]1(C)C(=O)[C@H](O)C3=C(C)[C@@H](OC(=O)[C@H](O)[C@@H](NC(=O)OC(C)(C)C)c4ccccc4)C[C@@](O)([C@@H](OC(=O)c4ccccc4)[C@H]21)C3(C)C [docetaxel],Solubility in water,[3]; water,10 to 25 µg/mL
Clc1ccc(COC(Cn2ccnc2)c2ccc(Cl)cc2Cl)cc1 (centres unmarked) [econazole],Solubility in ethanol,[3]; ethanol,≤ 20000 µg/mL
same,Solubility in water,"[3]; water, 19-66° F.",< 1000 µg/mL

# From patent publication US8592382B2, “Formulations for the oral administration of therapeutic agents and related methods” (The University of British Columbia, priority 2007, dated 2013)
